Values quoted from earlier work, collected in patent US20250131989A1, “LABORATORY CALIBRATION SYSTEM OF MATERIALS FOR USAGE IN SIMULATIONS AND FORECAST OF DISSOLUTION, DISINTEGRATION, DIFFUSION, COMPRESSION, DEFORMATION AND OTHER RELATED MATERIAL PROPERTIES AND CORRESPONDING METHOD THEREOF” (CINCAP GMBH, priority 2021, published 2025).

Assays:
[1] = example JSON database record, producer CINCAP
[2] = key 7 (solubility vs. pH data point); example JSON database record, producer CINCAP

Cn1c(=O)c2[nH]cnc2n(C)c1=O [Theophilline]
diffusivity [1]: “diffusivity”:6.16e−10, | solubility [2]: “solubility”:[{“key”:7, “value”:7.36}],
